Experimental data from the supplement of paper PMC8149375.

Legend:
Conditions in all cases: treatment: drug + dasatinib (fixed dose, not stated); 5 days
SN12C [1] = test: AUC of dose-response viability curve, drug + dasatinib, normalised to DMSO (arbitrary (AUC of normalised viability)); higher = less growth inhibition
Procedure: (§1)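 Primary HTS combination arm: 8 RCC cell lines treated with 8 doses (up to 10 uM) of each library drug plus a fixed dose of dasatinib (dose not stated) for 5 days; viability read by CellTiter-Glo and normalised to DMSO. GI50 was fitted with XLfit, AUC is the area under the dose-response curve, and minimum viability is the lowest fraction of DMSO viability across doses.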

786-O [2] = test: as above
Procedure: as §1

A498 [3] = test: as above
Procedure: as §1

769-P [4] = test: as above
Procedure: as §1

TK-10 [5] = test: as above
Procedure: as §1

ACHN [6] = test: as above
Procedure: as §1

UO-31 [7] = test: as above
Procedure: as §1

CAKI-1 [8] = test: as above
Procedure: as §1

SN12C [9] = test: minimum viability across doses, drug + dasatinib, relative to DMSO (fraction); higher = less growth inhibition
Procedure: as §1

786-O [10] = test: as above
Procedure: as §1

A498 [11] = test: as above
Procedure: as §1

769-P [12] = test: as above
Procedure: as §1

TK-10 [13] = test: as above
Procedure: as §1

ACHN [14] = test: as above
Procedure: as §1

UO-31 [15] = test: as above
Procedure: as §1

CAKI-1 [16] = test: as above
Procedure: as §1

SN12C [17] = test: GI50 of drug in presence of dasatinib; higher = less potent
Procedure: as §1

786-O [18] = test: as above
Procedure: as §1

A498 [19] = test: as above
Procedure: as §1

769-P [20] = test: as above
Procedure: as §1

TK-10 [21] = test: as above
Procedure: as §1

ACHN [22] = test: as above
Procedure: as §1

UO-31 [23] = test: as above
Procedure: as §1

CAKI-1 [24] = test: as above
Procedure: as §1

GI50 of drug (786-O [18]) | GI50 of drug (ACHN [22]) | Compound | AUC of dose-response viability curve (SN12C [1]) | AUC of dose-response viability curve (786-O [2]) | AUC of dose-response viability curve (A498 [3]) | AUC of dose-response viability curve (769-P [4]) | AUC of dose-response viability curve (TK-10 [5]) | AUC of dose-response viability curve (ACHN [6]) | AUC of dose-response viability curve (UO-31 [7]) | AUC of dose-response viability curve (CAKI-1 [8]) | minimum viability across doses (SN12C [9]) | minimum viability across doses (786-O [10]) | minimum viability across doses (A498 [11]) | minimum viability across doses (769-P [12]) | minimum viability across doses (TK-10 [13]) | minimum viability across doses (ACHN [14]) | minimum viability across doses (UO-31 [15]) | minimum viability across doses (CAKI-1 [16]) | GI50 of drug (SN12C [17]) | GI50 of drug (A498 [19]) | GI50 of drug (769-P [20]) | GI50 of drug (TK-10 [21]) | GI50 of drug (UO-31 [23]) | GI50 of drug (CAKI-1 [24])
482 nM | 137 nM | Cc1nc(N)sc1-c1ccnc(Nc2ccc(N3CCOCC3)cc2)n1 [CYC116] + Cc1nc(Nc2ncc(C(=O)Nc3c(C)cccc3Cl)s2)cc(N2CCN(CCO)CC2)n1 [dasatinib] | 2 | 1.74 | 3.01 | 1.92 | 1.96 | 1.35 | 2.86 | 1.45 | 0.0981 | 0.0032 | 0.381 | 0.074 | 0.0917 | 0.0722 | 0.0118 | 0.00751 | 831 nM | 6520 nM | 1020 nM | 640 nM | 2020 nM | 332 nM
439 nM | 77.4 nM | Cc1cc(Nc2cc(N3CCN(C)CC3)nc(/C=C/c3ccccc3)n2)n[nH]1.O=C(O)[C@H](O)[C@@H](O)C(=O)O [ENMD-2076] + Cc1nc(Nc2ncc(C(=O)Nc3c(C)cccc3Cl)s2)cc(N2CCN(CCO)CC2)n1 [dasatinib] | 1.81 | 1.78 | 2.4 | 1.92 | 1.91 | 1.32 | 2.5 | 1.4 | 0.0567 | 0.0877 | 0.247 | 0.131 | 0.164 | 0.0393 | 0.0131 | 0.00949 | 400 nM | 1270 nM | 1000 nM | 396 nM | 886 nM | 194 nM
24.5 nM | 6.5 nM | CC(C)NC[C@@H](C(=O)N1CCN(c2ncnc3c2[C@H](C)C[C@H]3O)CC1)c1ccc(Cl)cc1 [GDC-0068] + Cc1nc(Nc2ncc(C(=O)Nc3c(C)cccc3Cl)s2)cc(N2CCN(CCO)CC2)n1 [dasatinib] | 2.39 | 1.4 | 3.38 | 2.59 | 2.07 | 1.43 | 4.11 | 2.12 | 0.563 | 0.21 | 0.74 | 0.628 | 0.292 | 0.247 | 0.0701 | 0.311 | > 10000 nM | > 10000 nM | > 10000 nM | 1190 nM | 4910 nM | 1750 nM

Continued, compound first:

Compound | GI50 of drug (786-O [18]) | GI50 of drug (ACHN [22]) | AUC of dose-response viability curve (SN12C [1]) | AUC of dose-response viability curve (786-O [2]) | AUC of dose-response viability curve (A498 [3]) | AUC of dose-response viability curve (769-P [4]) | AUC of dose-response viability curve (TK-10 [5]) | AUC of dose-response viability curve (ACHN [6]) | AUC of dose-response viability curve (UO-31 [7]) | AUC of dose-response viability curve (CAKI-1 [8]) | minimum viability across doses (SN12C [9]) | minimum viability across doses (786-O [10]) | minimum viability across doses (A498 [11]) | minimum viability across doses (769-P [12]) | minimum viability across doses (TK-10 [13]) | minimum viability across doses (ACHN [14]) | minimum viability across doses (UO-31 [15]) | minimum viability across doses (CAKI-1 [16]) | GI50 of drug (SN12C [17]) | GI50 of drug (A498 [19]) | GI50 of drug (769-P [20]) | GI50 of drug (TK-10 [21]) | GI50 of drug (UO-31 [23]) | GI50 of drug (CAKI-1 [24])
Cc1nc(NC(=O)N2CCC[C@H]2C(N)=O)sc1-c1ccnc(C(C)(C)C(F)(F)F)c1 [BYL719] + Cc1nc(Nc2ncc(C(=O)Nc3c(C)cccc3Cl)s2)cc(N2CCN(CCO)CC2)n1 [dasatinib] | 69.8 nM | 11.6 nM | 2.23 | 1.56 | 3.24 | 2.29 | 2.15 | 1.45 | 3.72 | 2.14 | 0.407 | 0.114 | 0.54 | 0.393 | 0.305 | 0.242 | 0.0931 | 0.162 | > 10000 nM | > 10000 nM | 3680 nM | 2790 nM | 5560 nM | 1720 nM
O=c1[nH]c2ccc(Cl)cc2c(N[C@@H]2CN3CCC2CC3)c1-c1nc2ccccc2[nH]1 [CHIR-124] + Cc1nc(Nc2ncc(C(=O)Nc3c(C)cccc3Cl)s2)cc(N2CCN(CCO)CC2)n1 [dasatinib] | 37.4 nM | 11.2 nM | 1.76 | 0.817 | 2.13 | 1.31 | 1.37 | 0.737 | 1.52 | 1.3 | 0.00873 | 0.00497 | 0.0177 | 0.0198 | 0.151 | 0.018 | 0.00945 | 0.0428 | 1000 nM | 293 nM | 101 nM | 70.6 nM | 73.9 nM | 87.1 nM
C=CC(=O)Nc1cc2c(Nc3ccc(F)c(Cl)c3)ncnc2cc1OCCCN1CCOCC1 [CI-1033 (Canertinib)] + Cc1nc(Nc2ncc(C(=O)Nc3c(C)cccc3Cl)s2)cc(N2CCN(CCO)CC2)n1 [dasatinib] | 1340 nM | 14.1 nM | 2.13 | 2.11 | 2.74 | 1.46 | 1.79 | 1.31 | 2.4 | 1.84 | 0.295 | 0.372 | 0.0275 | 0.185 | 0.133 | 0.11 | 0.00946 | 0.0894 | 969 nM | 4070 nM | 46.4 nM | 283 nM | 1330 nM | 739 nM
COc1cc2c(Oc3ccc4[nH]c(C)cc4c3F)ncnc2cc1OCCCN1CCCC1 [Cediranib (AZD2171)] + Cc1nc(Nc2ncc(C(=O)Nc3c(C)cccc3Cl)s2)cc(N2CCN(CCO)CC2)n1 [dasatinib] | 1350 nM | 210 nM | 1.85 | 2.21 | 2.63 | 2.35 | 2.35 | 1.61 | 2.17 | 1.59 | 0.0758 | 0.13 | 0.154 | 0.145 | 0.0412 | 0.0558 | 0.014 | 0.019 | 355 nM | 2390 nM | 3970 nM | 2240 nM | 617 nM | 287 nM
N#CCNC(=O)c1ccc(-c2ccnc(Nc3ccc(N4CCOCC4)cc3)n2)cc1 [Cyt387] + Cc1nc(Nc2ncc(C(=O)Nc3c(C)cccc3Cl)s2)cc(N2CCN(CCO)CC2)n1 [dasatinib] | 884 nM | 796 nM | 2.27 | 1.73 | 3.6 | 2.24 | 2.14 | 1.72 | 2.78 | 1.83 | 0.271 | 0.0246 | 0.897 | 0.125 | 0.0961 | 0.0607 | 0.00938 | 0.0305 | 2910 nM | > 10000 nM | 2110 nM | 1630 nM | 2550 nM | 325 nM
CNC(=O)c1cc(Oc2ccc(NC(=O)Nc3cc(C(C)(C)C)nn3-c3ccc4ncccc4c3)c(F)c2)ccn1 [DCC-2036 (Rebastinib)] + Cc1nc(Nc2ncc(C(=O)Nc3c(C)cccc3Cl)s2)cc(N2CCN(CCO)CC2)n1 [dasatinib] | 293 nM | 499 nM | 1.87 | 1.88 | 3.51 | 2.21 | 2.29 | 1.71 | 2.84 | 1.54 | 0.0277 | 0.208 | 0.0121 | 0.185 | 0.0566 | 0.0458 | 0.00958 | 0.053 | 319 nM | 4420 nM | 1540 nM | 1330 nM | 1100 nM | 125 nM
CN1CCN(c2ccc3nc(-c4c(N)c5c(F)cccc5[nH]c4=O)[nH]c3c2)CC1 [Dovitinib (TKI-258)] + Cc1nc(Nc2ncc(C(=O)Nc3c(C)cccc3Cl)s2)cc(N2CCN(CCO)CC2)n1 [dasatinib] | 4070 nM | 44.8 nM | 1.6 | 2.58 | 2.49 | 2.06 | 2.33 | 1.38 | 2.36 | 1.5 | 0.0733 | 0.263 | 0.239 | 0.0592 | 0.277 | 0.14 | 0.0928 | 0.0724 | 266 nM | 2330 nM | 1410 nM | 1890 nM | 697 nM | 148 nM
CC(O)C(=O)O.CC(O)C(=O)O.CN1CCN(c2ccc3nc(-c4c(N)c5c(F)cccc5[nH]c4=O)[nH]c3c2)CC1 [Dovitinib Dilactic acid (TKI258 Dilactic acid)] + Cc1nc(Nc2ncc(C(=O)Nc3c(C)cccc3Cl)s2)cc(N2CCN(CCO)CC2)n1 [dasatinib] | 3480 nM | 11.7 nM | 1.8 | 2.64 | 3.14 | 2.2 | 2.12 | 0.989 | 3.44 | 1.45 | 0.0502 | 0.139 | 0.303 | 0.0213 | 0.289 | 0.0981 | 0.124 | 0.0435 | 352 nM | 4270 nM | 1750 nM | 1070 nM | 1320 nM | 98.2 nM
COc1cc2nccc(Oc3ccc(NC(=O)NC4CC4)c(Cl)c3)c2cc1C(N)=O [E7080 (Lenvatinib)] + Cc1nc(Nc2ncc(C(=O)Nc3c(C)cccc3Cl)s2)cc(N2CCN(CCO)CC2)n1 [dasatinib] | > 10000 nM | 1260 nM | 2.22 | 2.62 | 3.47 | 2.26 | 2.65 | 1.96 | 1.8 | 1.81 | 0.312 | 0.674 | 0.795 | 0.321 | 0.682 | 0.247 | 0.338 | 0.0901 | > 10000 nM | > 10000 nM | 4520 nM | > 10000 nM | 7260 nM | 431 nM
C#Cc1cccc(Nc2ncnc3cc(OCCOC)c(OCCOC)cc23)c1.Cl [Erlotinib HCl] + Cc1nc(Nc2ncc(C(=O)Nc3c(C)cccc3Cl)s2)cc(N2CCN(CCO)CC2)n1 [dasatinib] | 8920 nM | 206 nM | 2.54 | 2.65 | 3.48 | 1.94 | 2.4 | 1.73 | 3.03 | 1.97 | 0.589 | 0.469 | 0.718 | 0.234 | 0.37 | 0.114 | 0.249 | 0.125 | > 10000 nM | > 10000 nM | 440 nM | 2440 nM | 5540 nM | 1060 nM
CN1CC[C@H](c2c(O)cc(O)c3c(=O)cc(-c4ccccc4Cl)oc23)[C@H](O)C1.Cl [Flavopiridol hydrochloride] + Cc1nc(Nc2ncc(C(=O)Nc3c(C)cccc3Cl)s2)cc(N2CCN(CCO)CC2)n1 [dasatinib] | 34.9 nM | 24.5 nM | 1.28 | 0.837 | 1.74 | 1.34 | 1.53 | 0.849 | 1.98 | 1.02 | 0.00632 | 0.00472 | 0.0115 | 0.0135 | 0.168 | 0.00412 | 0.00894 | 0.0304 | 106 nM | 171 nM | 86 nM | 119 nM | 252 nM | 33.6 nM
